Data as given in BindingDB's records for doi:10.1016/j.bioorg.2015.05.008 (Universidade Do Porto, 2015).

What was measured:
Experiment in all cases: Radioligand Binding Assay
Adenosine receptor A3 = target: T1, Adenosine receptor A3 (Homo sapiens, UniProt P0DMS8)
T1 sequence (P0DMS8 whole entry): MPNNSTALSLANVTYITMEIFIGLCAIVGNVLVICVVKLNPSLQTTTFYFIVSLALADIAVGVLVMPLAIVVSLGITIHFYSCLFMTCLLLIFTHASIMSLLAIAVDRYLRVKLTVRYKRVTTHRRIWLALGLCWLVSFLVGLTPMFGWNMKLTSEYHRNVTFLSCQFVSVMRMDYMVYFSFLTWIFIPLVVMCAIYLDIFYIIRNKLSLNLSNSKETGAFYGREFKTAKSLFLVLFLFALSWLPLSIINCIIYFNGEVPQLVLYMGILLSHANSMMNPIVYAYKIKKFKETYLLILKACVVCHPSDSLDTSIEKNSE
Method: (§1) The radioligands used were 1 nM (2R,3R,4S,5R)-2-(2-chloro-6-cyclopentylamino-purin-9-yl)-5-hydroxymethyl-tetrahydro-3,4-diol ([3H]CCPA) for hA1, 10 nM (1-(6-amino-9H-purin-9-yl)-1-deoxy-N-ethyl-β-D-ribofuronamide) ([3H]NECA) for hA2a, and 1 nM 2-(1-hexynyl)-N6-methyladenosine [3H] ([3H]HEMADO) for hA3 receptors.

Adenosine receptor A1 = target: T2, Adenosine receptor A1 (Homo sapiens, UniProt P30542)
T2 sequence (P30542 whole entry): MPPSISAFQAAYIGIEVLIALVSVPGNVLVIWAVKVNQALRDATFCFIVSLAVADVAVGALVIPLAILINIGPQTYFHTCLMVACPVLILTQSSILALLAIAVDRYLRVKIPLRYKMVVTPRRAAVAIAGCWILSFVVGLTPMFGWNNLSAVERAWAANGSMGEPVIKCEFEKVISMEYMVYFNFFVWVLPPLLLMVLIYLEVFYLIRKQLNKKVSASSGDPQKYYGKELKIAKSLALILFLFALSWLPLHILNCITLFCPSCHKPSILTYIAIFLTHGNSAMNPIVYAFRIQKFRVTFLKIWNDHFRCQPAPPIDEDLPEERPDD
Method: as §1

Adenosine receptor A2a = Adenosine receptor A2a (Homo sapiens, UniProt P29274)
Method: as §1

Sequence of Adenosine receptor A2a (P29274 whole entry): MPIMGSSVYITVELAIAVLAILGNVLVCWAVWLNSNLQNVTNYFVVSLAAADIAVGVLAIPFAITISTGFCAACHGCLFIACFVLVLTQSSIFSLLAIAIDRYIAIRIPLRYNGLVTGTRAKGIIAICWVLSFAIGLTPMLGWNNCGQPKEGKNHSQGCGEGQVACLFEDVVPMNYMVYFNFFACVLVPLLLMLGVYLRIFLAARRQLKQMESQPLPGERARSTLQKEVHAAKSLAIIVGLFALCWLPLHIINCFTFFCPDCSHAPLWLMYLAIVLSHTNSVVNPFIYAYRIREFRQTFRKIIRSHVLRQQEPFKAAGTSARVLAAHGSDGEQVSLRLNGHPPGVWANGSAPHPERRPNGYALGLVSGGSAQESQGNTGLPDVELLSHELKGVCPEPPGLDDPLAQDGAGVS

SMILES	Ki (Adenosine receptor A3) [µM]	Ki (Adenosine receptor A1) [µM]	Ki (Adenosine receptor A2a) [µM]
O=C(Nc1cc2ccccc2oc1=O)c1ccccc1 [N-(2-oxidanylidenechromen-3-yl)benzamide]	3.24	> 100	> 100
C=CC(=O)Nc1c(O)c2ccccc2oc1=O [N-(4-Hydroxycoumarin-3-yl)acrylamide (3)]	> 100	> 100	> 100
O=C(Nc1c(O)c2ccccc2oc1=O)c1ccccc1 [N-(4-hydroxycoumarin-3-yl)benzamide (5)]	> 100	> 100	> 100
C=CC(=O)Nc1cc2ccccc2oc1=O [N-(Coumarin-3-yl)acrylamide (2)]	> 100	8.95	12.2
O=C(Nc1cc2ccccc2oc1=O)c1ccco1 [N-(Coumarin-3-yl)furan-2-carboxamide (8)]	9.79	5.18	> 100
O=C(Nc1cc2ccccc2oc1=O)c1cccnc1 [N-(coumarin-3-yl)nicotinamide (6)]	> 100	> 100	> 100
O=C(Nc1cc2ccccc2oc1=O)c1cccs1 [N-(coumarin-3-yl)thiophene-2-carboxamide (7)]	> 60	16.2	> 100
